Reference: patent EP2327700A1, “Dialkyl triazinamines and use thereof for combating undesired plant growth” (Bayer CropScience AG, priority 2009, dated 2011)
Blank lines part the entries; values can stand above or below the compound they belong to.

Assays:
[1] = system: Setaria viridis; experiment: Herbicidal action pre-emergence (greenhouse pot test); format: in vivo; conditions: 320 g/ha, visual rating after 3 weeks vs untreated controls
Text: (§1) • 1. Herbizide Wirkung bzw. Kulturpflanzenverträglichkeit im Vorauflauf Samen von mono- bzw. dikotylen Unkraut- bzw. Kulturpflanzen werden in Holzfasertöpfen in sandiger Lehmerde ausgelegt und mit Erde abgedeckt. Die in Form von benetzbaren Pulvern (WP) oder als Emulsionskonzentrate (EC) formulierten erfindungsgemäßen Verbindungen werden dann als wäßrige Suspension bzw. Emulsion mit einer Wasseraufwandmenge von umgerechnet 600 bis 800 I/ha unter Zusatz von 0,2% Netzmittel auf die Oberfläche der Abdeckerde appliziert. Nach der Behandlung werden die Töpfe im Gewächshaus aufgestellt und unter guten Wachstumsbedingungen für die Testpflanzen gehalten. Die visuelle Bonitur der Schäden an den Versuchspflanzen erfolgt nach einer Versuchszeit von 3 Wochen im Vergleich zu unbehandelten Kontrollen (herbizide Wirkung in Prozent (%): 100% Wirkung = Pflanzen sind abgestorben, 0 % Wirkung = wie Kontrollpflanzen). Dabei zeigen beispielsweise die Verbindungen Nr. I-16, I-17, I-48, I-50, I-51, I-52, I-54 und I-63 bei einer Aufwandmenge von 320 g/ha jeweils eine mindestens 80%-ige Wirkung gegen Lolium multiflorum, Setaria viridis und Stellaria media. Die Verbindungen Nr. I-64, I-65, I-66, I-68, I-69 und I-70 zeigen bei einer Aufwandmenge von 320 g/ha jeweils eine mindestens 80%-ige Wirkung gegen Amaranthus retroflexus, Pharbitis purpureumund Veronica persica. • 2. Herbizide Wirkung bzw. Kulturpflanzenverträglichkeit im Nachauflauf Samen von mono- bzw. dikotylen Unkraut- bzw. Kulturpflanzen werden in Holzfasertöpfen in sandigem Lehmboden ausgelegt, mit Erde abgedeckt und im Gewächshaus unter guten Wachstumsbedingungen angezogen. 2 bis 3 Wochen nach der Aussaat werden die Versuchspflanzen im Einblattstadium behandelt. Die in Form von benetzbaren Pulvern (WP) oder als Emulsionskonzentrate (EC) formulierten erfindungsgemäßen Verbindungen werden dann als wäßrige Suspension bzw. Emulsion mit einer Wasseraufwandmenge von umgerechnet 600 bis 800 I/ha unter Zusatz von 0,2% Netzmittel auf die grünen Pflanzenteile gesprüht. Nach ca. 3 Wochen Standzeit der Versuchspflanzen im Gewächshaus unter optimalen Wachstumsbedingungen wird die Wirkung der Präparate visuell im Vergleich zu unbehandelten Kontrollen bonitiert (herbizide Wirkung in Prozent (%): 100% Wirkung = Pflanzen sind abgestorben, 0 % Wirkung = wie Kontrollpflanzen). Dabei zeigen beispielsweise die Verbindungen Nr. I-50, I-52, I-54 und I-64 bei einer Aufwandmenge von 320 g/ha jeweils eine mindestens 80%-ige Wirkung gegen Alopecurus myosuroides, Setaria viridis und Stellaria media. Die Verbindungen Nr. I-51, I-63, I-66, I-69 und I-70 zeigen bei einer Aufwandmenge von 320 g/ha jeweils eine mindestens 80%-ige Wirkung gegen Alopecurus myosuroides, Veronica persica und Viola tricolor.

[2] = system: Stellaria media; experiment: as above; format: in vivo; conditions: 320 g/ha, visual rating after 3 weeks vs untreated controls
Text: as §1

[3] = system: Lolium multiflorum; experiment: as above; format: in vivo; conditions: 320 g/ha, visual rating after 3 weeks vs untreated controls
Text: as §1

[4] = logp (HCOOH) determination; format: physicochemical
[5] = system: Alopecurus myosuroides; experiment: Herbicidal action post-emergence (greenhouse pot test); format: in vivo; conditions: 320 g/ha, visual rating after ca. 3 weeks vs untreated controls
Text: as §1

[6] = system: Setaria viridis; experiment: as above; format: in vivo; conditions: 320 g/ha, visual rating after ca. 3 weeks vs untreated controls
Text: as §1

[7] = system: Stellaria media; experiment: as above; format: in vivo; conditions: 320 g/ha, visual rating after ca. 3 weeks vs untreated controls
Text: as §1

[8] = system: Viola tricolor; experiment: as above; format: in vivo; conditions: 320 g/ha, visual rating after ca. 3 weeks vs untreated controls
Text: as §1

[9] = system: Veronica persica; experiment: as above; format: in vivo; conditions: 320 g/ha, visual rating after ca. 3 weeks vs untreated controls
Text: as §1

[10] = system: Pharbitis purpureum; experiment: Herbicidal action pre-emergence (greenhouse pot test); format: in vivo; conditions: 320 g/ha, visual rating after 3 weeks vs untreated controls
Text: as §1

[11] = system: Veronica persica; experiment: as above; format: in vivo; conditions: 320 g/ha, visual rating after 3 weeks vs untreated controls
Text: as §1

[12] = system: Amaranthus retroflexus; experiment: as above; format: in vivo; conditions: 320 g/ha, visual rating after 3 weeks vs untreated controls
Text: as §1

- chromatographic logP ([4]; hcooh): 3.11
Compound: Cc1nc(N[C@@H]2CCOc3ccccc32)nc(C(F)(F)Cl)n1 [I-84]

- chromatographic logP ([4]; hcooh): 2.69
Compound: Cc1nc(N[C@@H]2CCc3ccccc32)nc(C(F)F)n1 [I-91]

- chromatographic logP ([4]; hcooh): 3.79
Compound: Cc1nc(NC2CCc3ccc(C(C)C)cc32)nc(C(F)F)n1 (stereo not drawn) [I-100]

- chromatographic logP ([4]; hcooh): 3.34
Compound: CCOc1ccc2c(c1)C(Nc1nc(C)nc(C(F)F)n1)CCC2 (stereo not drawn) [I-122]

- chromatographic logP ([4]; hcooh): 3.41
Compound: Cc1nc(NC2CCOc3ccc(C(C)C)cc32)nc(C(F)F)n1 (stereo not drawn) [I-125]

- chromatographic logP ([4]; hcooh): 3.3
Compound: Cc1ccc2c(c1)OC(C)(C)CC2Nc1nc(C)nc(C(F)F)n1 (stereo not drawn) [I-130]

- chromatographic logP ([4]; hcooh): 3.1
Compound: CCc1ccc2c(c1)C(Nc1nc(C)nc(C(F)F)n1)CCO2 (stereo not drawn) [I-134]

- chromatographic logP ([4]; hcooh): 3.71
Compound: CCc1ccc2c(c1)C(Nc1nc(C)nc(C(F)(F)F)n1)CCO2 (stereo not drawn) [I-135]

- chromatographic logP ([4]; hcooh): 3.58
Compound: Cc1nc(NC2c3ccc(Cl)cc3CC2C)nc(C(F)F)n1 (stereo not drawn) [I-137]

- chromatographic logP ([4]; hcooh): 2.9
Compound: COc1ccc2c(c1)CCCC2Nc1nc(C)nc(C(F)F)n1 (stereo not drawn) [I-159]

- chromatographic logP ([4]; hcooh): 3.55
Compound: Cc1nc(N[C@H]2c3cc(Br)ccc3C[C@@H]2C)nc(C(F)F)n1 [I-235, N-[trans-6-Brom-2-methyl-2,3-dihydro-1H-inden-1-yl]-4-(difluoromethyl)-6-methyl-1,3,5-triazin-2-amin]

- chromatographic logP ([4]; hcooh): 2.93
Compound: COc1ccc2c(c1)C(Nc1nc(C)nc(C(F)(F)F)n1)CCO2 (stereo not drawn) [I-237]

- chromatographic logP ([4]; hcooh): 1.51
Compound: CCc1ccc2c(c1)C(Nc1nc(C)nc(C)n1)CCO2 (stereo not drawn) [I-238]

The next lines start with the compound.

Compound: Cc1cc(C)c2c(c1)C(Nc1nc(C)nc(C)n1)CCC2 (stereo not drawn) [I-17, N2-(5,7-Dimethyl-1,2,3,4-tetrahydro-1-naphthalenyl)-4,6-dimethyl-1,3,5-triazin-2-amine]
- herbizide Wirkung in Prozent (%) [1]: ≥ 80%
- herbizide Wirkung in Prozent (%) [2]: ≥ 80%
- herbizide Wirkung in Prozent (%) [3]: ≥ 80%

Compound: Cc1ccc2c(c1)[C@H](Nc1nc(C)nc(C(C)C)n1)[C@@H](C)C2 [I-50]
- chromatographic logP ([4]; hcooh): 2.16
- herbizide Wirkung in Prozent (%) [1]: ≥ 80%
- herbizide Wirkung in Prozent (%) [2]: ≥ 80%
- herbizide Wirkung in Prozent (%) [3]: ≥ 80%
- herbizide Wirkung in Prozent (%) [5]: ≥ 80%
- herbizide Wirkung in Prozent (%) [6]: ≥ 80%
- herbizide Wirkung in Prozent (%) [7]: ≥ 80%

Compound: Cc1ccc2c(c1)[C@H](Nc1nc(C)nc(C(C)(C)C)n1)[C@@H](C)C2 [I-51]
- chromatographic logP ([4]; hcooh): 3.56
- herbizide Wirkung in Prozent (%) [1]: ≥ 80%
- herbizide Wirkung in Prozent (%) [2]: ≥ 80%
- herbizide Wirkung in Prozent (%) [3]: ≥ 80%
- herbizide Wirkung in Prozent (%) [8]: ≥ 80%
- herbizide Wirkung in Prozent (%) [5]: ≥ 80%
- herbizide Wirkung in Prozent (%) [9]: ≥ 80%

Compound: CCc1nc(C)nc(N[C@H]2c3cc(C)ccc3C[C@@H]2C)n1 [I-52]
- chromatographic logP ([4]; hcooh): 1.85
- herbizide Wirkung in Prozent (%) [1]: ≥ 80%
- herbizide Wirkung in Prozent (%) [2]: ≥ 80%
- herbizide Wirkung in Prozent (%) [3]: ≥ 80%
- herbizide Wirkung in Prozent (%) [5]: ≥ 80%
- herbizide Wirkung in Prozent (%) [6]: ≥ 80%
- herbizide Wirkung in Prozent (%) [7]: ≥ 80%

Compound: CCc1nc(C)nc(N[C@@H]2CCCc3ccccc32)n1 [I-53]
- chromatographic logP ([4]; hcooh): 1.48

Compound: COCc1nc(C)nc(N[C@H]2c3cc(C)ccc3C[C@@H]2C)n1 [I-54, N-[(1R,2S)-2,6-Dimethyl-2,3-dihydro-1H-inden-1-yl]-4-(methoxymethyl)-6-methyl-1,3,5-triazin-2-amin]
- chromatographic logP ([4]; HCOOH (formic acid)): 2.16
- herbizide Wirkung in Prozent (%) [1]: ≥ 80%
- herbizide Wirkung in Prozent (%) [2]: ≥ 80%
- herbizide Wirkung in Prozent (%) [3]: ≥ 80%
- herbizide Wirkung in Prozent (%) [5]: ≥ 80%
- herbizide Wirkung in Prozent (%) [6]: ≥ 80%
- herbizide Wirkung in Prozent (%) [7]: ≥ 80%

Compound: Cc1ccc2c(c1)[C@H](Nc1nc(C)nc(C)n1)[C@@H](C)C2 [I-63]
- chromatographic logP ([4]; hcooh): 1.59
- herbizide Wirkung in Prozent (%) [1]: ≥ 80%
- herbizide Wirkung in Prozent (%) [2]: ≥ 80%
- herbizide Wirkung in Prozent (%) [3]: ≥ 80%
- herbizide Wirkung in Prozent (%) [8]: ≥ 80%
- herbizide Wirkung in Prozent (%) [5]: ≥ 80%
- herbizide Wirkung in Prozent (%) [9]: ≥ 80%

Compound: Cc1ccc2c(c1)[C@H](Nc1nc(C)nc(C(F)F)n1)[C@@H](C)C2 [I-64]
- chromatographic logP ([4]; hcooh): 3.44
- herbizide Wirkung in Prozent (%) [10]: ≥ 80%
- herbizide Wirkung in Prozent (%) [11]: ≥ 80%
- herbizide Wirkung in Prozent (%) [12]: ≥ 80%
- herbizide Wirkung in Prozent (%) [5]: ≥ 80%
- herbizide Wirkung in Prozent (%) [6]: ≥ 80%
- herbizide Wirkung in Prozent (%) [7]: ≥ 80%

Compound: Cc1ccc2c(c1)[C@H](Nc1nc(C)nc(C(F)(F)Cl)n1)[C@@H](C)C2 [I-66]
- chromatographic logP ([4]; hcooh): 4.36
- herbizide Wirkung in Prozent (%) [10]: ≥ 80%
- herbizide Wirkung in Prozent (%) [11]: ≥ 80%
- herbizide Wirkung in Prozent (%) [12]: ≥ 80%
- herbizide Wirkung in Prozent (%) [8]: ≥ 80%
- herbizide Wirkung in Prozent (%) [5]: ≥ 80%
- herbizide Wirkung in Prozent (%) [9]: ≥ 80%

Compound: Cc1nc(N[C@@H]2CCCc3ccccc32)nc(C(F)(F)Cl)n1 [I-67]
- chromatographic logP ([4]; hcooh): 3.9

Compound: Cc1ccc2c(c1)[C@H](Nc1nc(C)nc(C(Cl)Cl)n1)[C@@H](C)C2 [I-69]
- chromatographic logP ([4]; hcooh): 4.13
- herbizide Wirkung in Prozent (%) [10]: ≥ 80%
- herbizide Wirkung in Prozent (%) [11]: ≥ 80%
- herbizide Wirkung in Prozent (%) [12]: ≥ 80%
- herbizide Wirkung in Prozent (%) [8]: ≥ 80%
- herbizide Wirkung in Prozent (%) [5]: ≥ 80%
- herbizide Wirkung in Prozent (%) [9]: ≥ 80%

Compound: Cc1ccc2c(c1)[C@H](Nc1nc(C)nc(C(Cl)(Cl)Cl)n1)[C@@H](C)C2 [I-70, N-[(1R,2S)-2,6-Dimethyl-2,3-dihydro-1H-inden-1-yl]-4-methyl-6-(trichloromethyl)-1,3,5-triazin-2-amin]
- chromatographic logP ([4]; HCOOH (formic acid)): 4.85
- herbizide Wirkung in Prozent (%) [10]: ≥ 80%
- herbizide Wirkung in Prozent (%) [11]: ≥ 80%
- herbizide Wirkung in Prozent (%) [12]: ≥ 80%
- herbizide Wirkung in Prozent (%) [8]: ≥ 80%
- herbizide Wirkung in Prozent (%) [5]: ≥ 80%
- herbizide Wirkung in Prozent (%) [9]: ≥ 80%

Compound: Cc1nc(N[C@@H]2CCCc3ccccc32)nc(C(Cl)(Cl)Cl)n1 [I-71]
- chromatographic logP ([4]; hcooh): 4.4

Compound: Cc1nc(C)nc(N[C@@H]2CCCc3ccccc32)n1 [I-78, 4,6-Dimethyl-N-[(1R)-1,2,3,4-tetrahydronaphthalen-1-yl]-1,3,5-triazin-2-amine]
- chromatographic logP ([4]; HCOOH (formic acid)): 1.35

Compound: Cc1nc(N[C@H]2c3cc(Br)ccc3C[C@@H]2C)nc(C(F)(F)Cl)n1 [I-81]
- chromatographic logP ([4]; hcooh): 3.8

Compound: Cc1nc(NC2CC(C)(C)Oc3cc(Cl)c(F)cc32)nc(C(F)(F)Cl)n1 (stereo not drawn) [I-82]
- chromatographic logP ([4]; hcooh): 4.32

Compound: Cc1nc(N[C@@H]2CCOc3c(F)cccc32)nc(C(F)(F)Cl)n1 [I-83]
- chromatographic logP ([4]; hcooh): 3.06

Compound: Cc1ccc2c(c1)[C@H](Nc1nc(C)nc(C(F)(F)F)n1)[C@@H](C)C2 [I-87]
- chromatographic logP ([4]; hcooh): 4.21

Compound: Cc1nc(NC2CC(C)(C)Oc3cc(Cl)c(F)cc32)nc(C(F)F)n1 (stereo not drawn) [I-95]
- chromatographic logP ([4]; hcooh): 4.32

Compound: Cc1nc(NC2CCc3c(C)cccc32)nc(C(F)(F)Cl)n1 (stereo not drawn) [I-147]
- chromatographic logP ([4]; hcooh): 3.98

Compound: Cc1nc(C)nc(NC2CCc3c(C)cccc32)n1 (stereo not drawn) [I-168, 4,6-Dimethyl-N-(4-methyl-2,3-dihydro-1H-inden-1-yl)-1,3,5-triazin-2-amine]
- chromatographic logP ([4]; HCOOH (formic acid)): 1.36
